One test concerns eukaryotic cells. Conditions: cited from earlier work; for Localization in the eukaryotic cells: chemically coupled to the peroxydase protein or IgG, WO 01/64738.
The subject of test [1] is Escherichia coli ATCC 25922. Kind of test: Internalization of DPV fluorescent conjugates in E. coli (epifluorescence microscopy). Conditions: tested as Bodipy conjugate, 1 μM, 30 minutes at 37° C., non-fixed bacteria. The format is cell-based. As to the method:
(§1) The bacteria in an exponential phase of culture were centrifuged and washed three times with the 10 mM, pH7.4 sodium phosphate buffer (NAPB buffer). The bacterial concentration was adjusted to 1×10^6 cfu/ml (colony-forming units) in the NAPB buffer. 50 μl of the bacterial suspension was deposited on a poly-L-Lysine slide. After 30 minutes incubation at 37° C. in a humid chamber, the bacteria immobilized on the slide were rinsed three times with the NAPB buffer. A 50 μl solution of DPV-Bodipy or DPV-TMR conjugate or control product was, deposited on the bacteria. After incubation for 30 minutes at 37° C. in a humidity chamber and away from light, the slides were rinsed three times with the NAPB buffer. The bacteria may be fixed on the slide by incubating 20 minutes at 37° C., away from light. A drop of 50% PBS/Glycerol was deposited on the slide and covered by a cover glass. After sealing the cover glass on the slide, bacterial fluorescence was observed under a Leica epifluorescence optical microscope (40× or 63× immersion lens). The images were taken with a digital Nikon Coolpix camera with maximum zoom and a 0.63× adapter. A more detailed analysis was performed with a confocal Bio-rad MRC 600 microscope (BIO-RAD Microscience Ltd., Hemel Hempstead, England), provided with an inverse optical microscope and an ×100 immersion lens. The bacteria were visualized by their fluorescence after excitation with a krypton/argon laser. Several sections of 0.1-0.2 μm bacteria were made.
The immobilized bacteria on a poly-L-Lysine slide were incubated with 1 μM of DPV-Bodipy conjugate for 30 minutes at 37° C.
The E. coli bacteria were incubated for 30 minutes at 37° C. with 1 μM of DPV-Bodipy conjugate, as described in paragraph I.8.a. The internalization of fluorescent DPV-Bodipy conjugates in the non-fixed bacteria was visualized under an epifluorescence microscope. […] With the DPV11 and DPV12 peptides (FIGS. 31 and 3J), heterogeneous fluorescence levels in one single bacterial population was obtained. The internalization properties of these peptides were weaker. […] (FIG. 3L).
The internalization of the DPV3 TMR conjugate was evaluated on E. coli bacteria immobilized on a poly-L-Lysine slide or in suspension. The bacteria were incubated with 1 μM of DPV3-TMR conjugate or the Cyst-TMR control for 30 minutes at 37° C., and then either fixed or not on the slide before visualization in an epifluorescence optical microscope.

In test [2] the test system is Gram-negative bacterium (E. coli, P. aeruginosa). Put plainly: Classification of DPVs by internalization level in the two bacterial strains. Conditions: for Internalization properties in prokaryotic cells (Gram-negative bacteria): compared with the eukaryotic cell; for Classification of DPVs: level of internalization: DPV-Bodipy conjugates, accumulation in bacterial cytoplasm, E. coli and P. aeruginosa. The format is cell-based. As to the method: as §1
Generally, the internalization of DPV is almost identical for the two bacterial strains that were studied.

The subject of test [3] is Pseudomonas aeruginosa ATCC 27853. Kind of test: Internalization of DPV-Bodipy conjugates in P. aeruginosa (epifluorescence microscopy). The format is cell-based. The conditions noted are these: tested as Bodipy conjugate, 1 μM, 30 minutes at 37° C. How it is done: as §1, with “A more detailed analysis was performed with a confocal Bio-rad MRC 600 microscope (BIO-RAD Microscience Ltd., Hemel Hempstead, England), provided with an inverse optical microscope and an ×100 immersion lens.” left out, “Several sections of 0.1-0.2 μm bacteria were made.” left out

The next test concerns P. aeruginosa. Kind of test: Confocal microscopy localization in P. aeruginosa. The test is classed as cell-based, Pseudomonas aeruginosa. The conditions noted are these: 3 μM, 37° C., 30 mins., bacteria fixed. As to the method: as §1, with “A more detailed analysis was performed with a confocal Bio-rad MRC 600 microscope (BIO-RAD Microscience Ltd., Hemel Hempstead, England), provided with an inverse optical microscope and an ×100 immersion lens.” left out, “Several sections of 0.1-0.2 μm bacteria were made.” left out

The next test concerns E. coli ATCC 25922. Kind of test: Chessboard method, DPV peptide and erythromycin, E. coli. The test is classed as cell-based, Escherichia coli. Conditions: MH medium, 18 hours at 37° C.

Where no end group is shown, it is not given here.

Method for E. coli ATCC 25922: The dilution ranges were prepared according to a geometric progression of ration 2. 25 μl of the product solutions in MH medium with a concentration four times higher than the desired final concentration or 25 μl of the MH medium (for the lines 0), were distributed in the wells according to the chart below (Table 2), in order to obtain a final volume of 50 μl per well: An isolated colony of the bacterium E. coli ATCC 25922 or P. aeruginosa ATCC 27853 was placed in suspension in 3 to 5 ml of the MH culture medium and incubated at 37° C. for one night, while stirring. From this night culture, a culture in exponential growth phase of the strain was made; the MH medium was seeded at 1/50 é with the night culture and incubated for two hours at 37° C., while stirring. The bacterial concentration was adjusted to 5×10^5-10 s cfu/ml (colony-forming units) in the MH medium. […] The CMI was expressed in μg/ml (mg/1). […] An index below or equal to 0.5 indicates a synergy, an index above 2, an antagonism.

As to “Ala Lys Thr Gly Lys Arg Lys Arg Ser Gly (AKTGKRKRSG; C-terminal Cys added; listed as Homo sapiens) [DPV11]”, in the test with eukaryotic cells, the “Internalization properties in the eukaryotic cell” value is “do not have any internalization properties”. For the same substance, the “Internalization in E. coli (description of FIG. 3)” value (shortened to “Internalization in E. coli”) in test [1] is recorded as “weaker”. The “Internalization properties in prokaryotic cells (Gram-negative bacteria)” value in test [2] is “same property”.

For the substance “Arg Lys Lys Arg Arg Arg Glu Ser Arg Arg Ala Arg Arg Ser Pro Arg His Leu (RKKRRRESRRARRSPRHL; C-terminal Cys; listed as Homo sapiens) [DPV3.10]”, the “Localization in the eukaryotic cells” value in the test with eukaryotic cells was “cytoplasmic localization peptides”. Further, the “Internalization in E. coli” value in test [1] is recorded as “highly penetrating”. Further, the “Classification of DPVs: level of internalization” value (“Classification of DPVs” below) in test [2] is “elevated internalization”.

As for “Asn Pro Gly Val Ser Thr Val Val Leu Gly Ala Tyr Asp Leu Arg Arg Arg Glu Arg Gin Ser Arg (NPGVSTVVLGAYDLRRRERQSR; N-terminal Cys; listed as Homo sapiens) [DPV19]”, the “Internalization properties in the eukaryotic cell” value in the test on eukaryotic cells was “do not have any internalization properties”. For the same substance, the “Internalization in E. coli” value in test [1] is “did not penetrate into the bacteria”. In test [2], the “Internalization properties in prokaryotic cells (Gram-negative bacteria)” value is reported as “same property”.

Consider “Gin Gly Lys Ser Lys Arg Glu Lys Lys Asp Arg Val Phe (QGKSKREKKDRVF; C-terminal Cys; listed as Homo sapiens) [DPV12]”, for which, in the test with eukaryotic cells, the “Internalization properties in the eukaryotic cell” value is “do not have any internalization properties”. The “Internalization in E. coli” value in test [1] is on record as “weaker”. Besides, in test [2], the “Internalization properties in prokaryotic cells (Gram-negative bacteria)” value was “same property”.

Consider “Gly Ala Tyr Asp Leu Arg Arg Arg Glu Arg Gin Ser Arg Leu Arg Arg Arg Glu Arg Gin Ser Arg (GAYDLRRRERQSRLRRRERQSR; N-terminal Cys; listed as Homo sapiens) [DPV15b]”, for which, in the test on eukaryotic cells, the “Localization in the eukaryotic cells” value is reported as “nuclear localization peptides”. For the same substance, the “Classification of DPVs” value in test [2] is on record as “weak internalization”.

As to “Gly Arg Pro Arg Glu Ser Gly Lys Lys Arg Lys Arg Lys Arg Leu Lys Pro (GRPRESGKKRKRKRLKP; C-terminal Cys; listed as Homo sapiens) [DPV6]”, the “Localization in the eukaryotic cells” value in the test on eukaryotic cells is “cytoplasmic localization peptides”. In addition, the “Internalization in P. aeruginosa compared with E. coli (FIG. 5)” value in test [3] is “more internalizing in P. aeruginosa”. Besides, the “Internalization in E. coli” value in test [1] is listed as “highly penetrating”. The “Classification of DPVs” value in test [2] is given as “medium internalization”.

As to “Gly Lys Arg Lys Lys Lys Gly Lys Leu Gly Lys Lys Arg Asp Pro (GKRKKKGKLGKKRDP; C-terminal Cys; listed as Homo sapiens) [DPV7]”, the “Localization in the eukaryotic cells” value with eukaryotic cells was “cytoplasmic localization peptides”. In addition, the “Classification of DPVs” value in test [2] is “medium internalization”.

On to “Gly Lys Arg Lys Lys Lys Gly Lys Leu Gly Lys Lys Arg Pro Arg Ser Arg (GKRKKKGKLGKKRPRSR; C-terminal Cys; listed as Homo sapiens) [DPV7b]”, for which the “Localization in the eukaryotic cells” value with eukaryotic cells is listed as “cytoplasmic localization peptides”. Moreover, the “Internalization in P. aeruginosa compared with E. coli (FIG. 5)” value in test [3] was “more internalizing in P. aeruginosa than in E. coli”. Also, the “Localization of Bodipy conjugate in P. aeruginosa (confocal, FIG. 6)” value with P. aeruginosa is reported as “able to pass through the external membrane”. In test [2], the “Classification of DPVs” value is listed as “medium internalization”.

Regarding “Leu Arg Arg Glu Arg Gin Ser Arg Leu Arg Arg Glu Arg Gin Ser Arg (LRRERQSRLRRERQSR; C-terminal Cys; listed as Homo sapiens) [DPV15]”, the “Localization in the eukaryotic cells” value with eukaryotic cells is on record as “nuclear localization peptides”. The “Internalization in E. coli” value in test [1] is reported as “highly penetrating”. Moreover, the “Classification of DPVs” value in test [2] is on record as “medium internalization”.

Consider RKKRRRESRKKRRRES [DPV3], for which the “Localization in the eukaryotic cells” value with eukaryotic cells was “cytoplasmic localization peptides”. The “Internalization in E. coli” value in test [1] was “highly penetrating”. In the test with E. coli ATCC 25922, the “CMI, product alone” value stood at 128 µg/mL. In addition, the “Localization of Bodipy conjugate in P. aeruginosa (confocal, FIG. 6)” value in the test on P. aeruginosa is on record as “able to pass through the external membrane”. In addition, the “Classification of DPVs” value in test [2] is recorded as “elevated internalization”.

“Val Lys Arg Gly Leu Lys Leu Arg Gin Lys Tyr Asn Lys Arg Ala Met Asp Tyr (VKRGLKLRQKYNKRAMDY; N-terminal Cys added; listed as Homo sapiens) [DPV1121]”: in the test on eukaryotic cells, the “Localization in the eukaryotic cells” value was “nuclear localization peptides”. Also, in test [2], the “Classification of DPVs” value is “weak internalization”.

“Val Lys Arg Gly Leu Lys Leu Arg His Val Arg Pro Arg Val Thr Arg Met Asp Val (VKRGLKLRHVRPRVTRMDV; N-terminal Cys added; listed as Homo sapiens) [DPV1047]”: the “Localization in the eukaryotic cells” value with eukaryotic cells is on record as “nuclear localization peptides”. Also, the “Classification of DPVs” value in test [2] is recorded as “weak internalization”.
